The target in one series is T1, BK channels (Homo sapiens, UniProt Q12791).
T1 construct: expressed in transfected cells; host or cells: Xenopus laevis oocytes
In words: BK channel opening activity, two-electrode voltage clamp in Xenopus laevis oocytes. The format is cell-based. As to the method: In this example the BK channel opening activity of Compound 1 (i.e. N-(2-Benzo[d]isoxazol-3-yl-acetyl)-methanesulfonamide) is determined using BK channels heterologously expressed in Xenopus laevis oocytes.
The electrical current through the BK channel was measured using conventional two-electrode voltage clamp. BK currents were activated by repeating ramp protocols. In brief, the membrane potential was continuously changed from −120 mV to +120 mV within a 2 s period. The threshold for BK activation is approximately +30 mV under control conditions. Compounds were applied for 100 s during which the ramp protocol was repeated 10 times with 10 s intervals. In between the ramp protocols the membrane potential was clamped at −80 mV. The first three compound applications were control blanks where the current level is allowed to stabilize.
In order to evaluate the ability of the compounds to shift the BK activation curve towards lower membrane potentials, the BK current was transformed into conductance by using Ohm's law g=I/(Ememb−Erev), where g is the conductance, I is the current, Ememb is the membrane potential and Erev is the reversal potential. The extracellular solution for these experiments contained 2.5 mM K+ and the intracellular K+ concentration of an oocyte was estimated to be 100 mM. Under those conditions, Nernst equation predicts a reversal potential of Erev=−93.2 mV. The control conductance level at a membrane potential of +100 mV was calculated, and the compound effect was evaluated as the potential difference, ΔV, to the membrane potential at which the same conductance level was obtained in the presence of compound.
The concentration response curve for this potential difference was fitted to the sigmoidal logistic equation: ΔV=ΔVmax/(1+(EC50/[compound])^n), where ΔVmax represents the maximal left shift of the BK activation curve, EC50 is the concentration causing a half maximal response, and n is the slope coefficient.

T1 sequence (Q12791 whole entry): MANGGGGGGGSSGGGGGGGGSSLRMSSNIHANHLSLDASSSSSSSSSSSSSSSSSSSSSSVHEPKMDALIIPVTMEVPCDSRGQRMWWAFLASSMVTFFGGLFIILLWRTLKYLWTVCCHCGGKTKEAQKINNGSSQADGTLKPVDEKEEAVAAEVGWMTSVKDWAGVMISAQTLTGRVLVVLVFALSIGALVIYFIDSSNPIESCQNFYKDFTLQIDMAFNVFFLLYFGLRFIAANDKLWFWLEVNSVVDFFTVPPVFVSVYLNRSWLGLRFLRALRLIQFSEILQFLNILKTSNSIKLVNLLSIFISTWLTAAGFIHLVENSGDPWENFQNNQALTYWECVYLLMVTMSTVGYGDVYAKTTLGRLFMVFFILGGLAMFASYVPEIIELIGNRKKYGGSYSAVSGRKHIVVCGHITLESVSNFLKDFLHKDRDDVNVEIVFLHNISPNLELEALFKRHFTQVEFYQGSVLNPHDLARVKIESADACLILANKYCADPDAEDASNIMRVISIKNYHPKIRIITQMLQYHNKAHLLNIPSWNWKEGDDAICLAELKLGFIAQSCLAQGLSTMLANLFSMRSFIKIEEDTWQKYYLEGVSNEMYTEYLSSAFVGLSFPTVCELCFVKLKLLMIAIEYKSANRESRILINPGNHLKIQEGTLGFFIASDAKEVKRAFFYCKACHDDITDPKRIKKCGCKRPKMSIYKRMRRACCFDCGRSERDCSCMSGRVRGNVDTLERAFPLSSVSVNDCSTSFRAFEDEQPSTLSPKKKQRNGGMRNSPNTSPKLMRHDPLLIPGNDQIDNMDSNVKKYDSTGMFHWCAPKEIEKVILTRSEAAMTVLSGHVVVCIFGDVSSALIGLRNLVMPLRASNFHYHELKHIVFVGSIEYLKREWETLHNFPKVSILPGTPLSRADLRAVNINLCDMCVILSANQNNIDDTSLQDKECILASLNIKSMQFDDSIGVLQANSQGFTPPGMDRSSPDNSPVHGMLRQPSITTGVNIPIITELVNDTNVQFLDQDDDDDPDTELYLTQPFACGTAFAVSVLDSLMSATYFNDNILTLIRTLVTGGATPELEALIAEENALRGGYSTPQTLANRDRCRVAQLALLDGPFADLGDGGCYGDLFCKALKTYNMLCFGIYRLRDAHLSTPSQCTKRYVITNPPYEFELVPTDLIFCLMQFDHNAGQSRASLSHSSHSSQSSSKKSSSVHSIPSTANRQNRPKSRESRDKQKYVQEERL

The compound `CS(=O)(=O)NC(=O)Cc1noc2ccccc12` [Compound 1, N-(2-Benzo[d]isoxazol-3-yl-acetyl)-methanesulfonamide] came in with a melting point of 167 to 171 °C. For the same compound, the “ΔVmax, maximal left-shift of the BK activation curve” value at BK channels (BK channels heterologously expressed in Xenopus laevis oocytes, 0.01-31.6 μM, fitted to sigmoidal logistic equation) is listed as −15 mV. Besides, the EC50 on BK channels (BK channels heterologously expressed in Xenopus laevis oocytes, 0.01-31.6 μM, ΔV at control conductance level of +100 mV, fitted to sigmoidal logistic equation, read-out: EC50 for the left-shift of the BKCa-activation curve) turned out to be 300 nM. Besides, the “BK current level at depolarizing potentials” value on BK channels (increasing concentrations (0.01-31.6 μM), ramp protocol −120 mV to +120 mV, Xenopus laevis oocytes) is “marked increase in the current level”.

The values above are taken from US20100168192A1, “BENZISOXAZOLE DERIVATIVES AS POTASSIUM CHANNEL MODULATORS FOR THE TREATMENT OF E.G. RESPIRATORY DISEASES, EPILEPSY AND CONVULSIONS” (NeuroSearch A/S, priority 2007, published 2010).
